In paper PMC7265341, “Quantifying CDK inhibitor selectivity in live cells” (Nature Communications, 2020):
Where two headings read alike, the source gives them in different places.

What was measured:
CDK1/Cyclin E1 = CDK1/Cyclin E1 (Homo sapiens, UniProt P06493); experiment: NanoBRET live-cell target engagement, CDK1-NanoLuc/Cyclin E1 in HEK-293; format: binding; conditions: CDK1/E1
CDK2/Cyclin E1 = CDK2/Cyclin E1 (Homo sapiens, UniProt P24941); experiment: NanoBRET live-cell target engagement, CDK2-NanoLuc/Cyclin E1 in HEK-293; format: binding; conditions: CDK2/E1
CDK4/Cyclin D1 = CDK4/Cyclin D1 (Homo sapiens, UniProt P11802); experiment: NanoBRET live-cell target engagement, NanoLuc-CDK4/Cyclin D1 in HEK-293; format: binding; conditions: CDK4/D1; for IC50: read-out: IC50
CDK5/CDK5R1 = CDK5/CDK5R1 (Homo sapiens, UniProt Q00535); experiment: NanoBRET live-cell target engagement, CDK5-NanoLuc/CDK5R1 in HEK-293; format: binding; conditions: CDK5/CDK5R1
CDK6/Cyclin D1 = CDK6/Cyclin D1 (Homo sapiens, UniProt Q00534); experiment: NanoBRET live-cell target engagement, NanoLuc-CDK6/Cyclin D1 in HEK-293; format: binding; conditions: CDK6/D1; for IC50: read-out: IC50
Sequence of CDK6/Cyclin D1 (Q00534 whole entry): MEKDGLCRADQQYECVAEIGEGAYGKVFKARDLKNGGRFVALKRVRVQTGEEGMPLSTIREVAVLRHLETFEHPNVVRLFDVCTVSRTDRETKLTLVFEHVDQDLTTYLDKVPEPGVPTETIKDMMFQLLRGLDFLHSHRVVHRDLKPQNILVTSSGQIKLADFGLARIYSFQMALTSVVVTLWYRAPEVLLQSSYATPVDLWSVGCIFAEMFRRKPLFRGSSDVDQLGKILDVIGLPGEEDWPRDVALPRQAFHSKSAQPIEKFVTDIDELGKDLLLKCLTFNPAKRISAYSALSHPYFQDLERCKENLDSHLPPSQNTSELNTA
Sequence of CDK6/Cyclin D1 (P24385 whole entry partner): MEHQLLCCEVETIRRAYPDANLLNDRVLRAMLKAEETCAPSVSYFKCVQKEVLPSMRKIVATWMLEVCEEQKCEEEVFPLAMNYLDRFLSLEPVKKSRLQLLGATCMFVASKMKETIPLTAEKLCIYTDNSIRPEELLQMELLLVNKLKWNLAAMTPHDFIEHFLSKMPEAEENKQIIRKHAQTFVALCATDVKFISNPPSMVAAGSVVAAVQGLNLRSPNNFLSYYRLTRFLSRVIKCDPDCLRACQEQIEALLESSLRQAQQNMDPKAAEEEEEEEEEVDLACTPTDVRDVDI

CDK7 = CDK7 (Homo sapiens, UniProt P50613); experiment: NanoBRET live-cell target engagement, NanoLuc-CDK7 in HEK-293; format: binding; conditions: CDK7
Sequence of CDK7 (P50613 whole entry): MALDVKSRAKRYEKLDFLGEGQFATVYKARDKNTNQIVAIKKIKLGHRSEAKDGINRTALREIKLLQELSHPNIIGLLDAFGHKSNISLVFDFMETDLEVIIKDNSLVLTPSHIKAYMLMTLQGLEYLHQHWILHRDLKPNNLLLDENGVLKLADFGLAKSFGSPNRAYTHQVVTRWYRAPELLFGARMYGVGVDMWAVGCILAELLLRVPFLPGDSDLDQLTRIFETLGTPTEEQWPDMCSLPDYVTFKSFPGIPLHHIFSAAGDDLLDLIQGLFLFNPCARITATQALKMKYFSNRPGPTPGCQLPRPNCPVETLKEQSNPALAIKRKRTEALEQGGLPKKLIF

CDK8/Cyclin C = CDK8/Cyclin C (Homo sapiens, UniProt P49336); experiment: NanoBRET live-cell target engagement, NanoLuc-CDK8/Cyclin C in HEK-293; format: binding; conditions: CDK8/C
Sequence of CDK8/Cyclin C (P49336 whole entry): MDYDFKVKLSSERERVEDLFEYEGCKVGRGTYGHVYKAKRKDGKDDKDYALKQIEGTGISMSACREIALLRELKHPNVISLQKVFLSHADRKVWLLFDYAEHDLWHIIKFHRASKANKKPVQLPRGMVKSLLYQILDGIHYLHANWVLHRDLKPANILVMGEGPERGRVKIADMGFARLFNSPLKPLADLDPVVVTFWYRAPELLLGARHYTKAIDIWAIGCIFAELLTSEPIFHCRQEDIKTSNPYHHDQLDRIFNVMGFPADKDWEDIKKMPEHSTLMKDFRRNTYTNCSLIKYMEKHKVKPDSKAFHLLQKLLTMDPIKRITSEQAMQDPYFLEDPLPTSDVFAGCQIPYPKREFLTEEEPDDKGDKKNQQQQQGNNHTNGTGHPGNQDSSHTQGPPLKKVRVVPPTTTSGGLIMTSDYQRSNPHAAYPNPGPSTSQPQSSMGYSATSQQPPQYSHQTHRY
Sequence of CDK8/Cyclin C (P24863 whole entry partner): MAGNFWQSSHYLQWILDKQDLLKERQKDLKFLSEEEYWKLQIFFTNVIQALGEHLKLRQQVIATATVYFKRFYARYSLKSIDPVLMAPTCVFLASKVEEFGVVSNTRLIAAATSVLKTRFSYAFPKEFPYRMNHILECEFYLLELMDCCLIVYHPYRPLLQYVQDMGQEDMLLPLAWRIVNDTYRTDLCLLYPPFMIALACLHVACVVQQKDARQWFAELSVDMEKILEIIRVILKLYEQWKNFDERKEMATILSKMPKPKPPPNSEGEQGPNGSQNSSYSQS

CDK9/Cyclin K = CDK9/Cyclin K (Homo sapiens, UniProt P50750); experiment: NanoBRET live-cell target engagement, NanoLuc-CDK9/Cyclin K in HEK-293; format: binding; conditions: CDK9/K
CDK11A/Cyclin L2 = biological target: T1, CDK11A/Cyclin L2 (Homo sapiens, UniProt Q9UQ88); experiment: NanoBRET live-cell target engagement, CDK11A-NanoLuc/Cyclin L2 in HEK-293; format: binding; conditions: CDK11a/L2
T1 sequence (Q9UQ88 1-783): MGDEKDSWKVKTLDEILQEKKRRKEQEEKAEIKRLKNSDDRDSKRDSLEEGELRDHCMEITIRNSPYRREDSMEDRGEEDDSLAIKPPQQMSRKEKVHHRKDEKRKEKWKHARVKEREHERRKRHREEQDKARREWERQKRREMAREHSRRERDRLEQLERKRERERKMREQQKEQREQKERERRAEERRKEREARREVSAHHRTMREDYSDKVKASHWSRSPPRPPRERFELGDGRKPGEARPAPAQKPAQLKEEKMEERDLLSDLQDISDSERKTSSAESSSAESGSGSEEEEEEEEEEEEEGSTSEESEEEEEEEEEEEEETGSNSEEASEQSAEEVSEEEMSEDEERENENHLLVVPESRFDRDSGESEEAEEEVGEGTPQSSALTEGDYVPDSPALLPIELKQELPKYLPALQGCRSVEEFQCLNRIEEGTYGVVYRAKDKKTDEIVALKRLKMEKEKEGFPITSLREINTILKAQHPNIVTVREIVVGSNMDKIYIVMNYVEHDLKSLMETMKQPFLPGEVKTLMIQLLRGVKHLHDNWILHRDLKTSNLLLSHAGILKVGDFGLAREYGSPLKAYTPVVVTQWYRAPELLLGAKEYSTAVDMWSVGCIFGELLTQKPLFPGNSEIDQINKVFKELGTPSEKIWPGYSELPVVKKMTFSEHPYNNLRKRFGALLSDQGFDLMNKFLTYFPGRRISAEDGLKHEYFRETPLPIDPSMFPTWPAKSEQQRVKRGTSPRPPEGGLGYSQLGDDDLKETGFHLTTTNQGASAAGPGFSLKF

CDK11B/Cyclin L2 = CDK11B/Cyclin L2 (Homo sapiens, UniProt P21127); experiment: NanoBRET live-cell target engagement, CDK11B-NanoLuc/Cyclin L2 in HEK-293; format: binding; conditions: CDK11b/L2
CDK13/Cyclin K = CDK13/Cyclin K (Homo sapiens, UniProt Q14004); experiment: NanoBRET live-cell target engagement, CDK13-NanoLuc/Cyclin K in HEK-293; format: binding; conditions: CDK13/K
CDK14/Cyclin Y = CDK14/Cyclin Y (Homo sapiens, UniProt O94921); experiment: NanoBRET live-cell target engagement, CDK14-NanoLuc/Cyclin Y in HEK-293; format: binding; conditions: CDK14/Y
Sequence of CDK14/Cyclin Y (O94921 whole entry): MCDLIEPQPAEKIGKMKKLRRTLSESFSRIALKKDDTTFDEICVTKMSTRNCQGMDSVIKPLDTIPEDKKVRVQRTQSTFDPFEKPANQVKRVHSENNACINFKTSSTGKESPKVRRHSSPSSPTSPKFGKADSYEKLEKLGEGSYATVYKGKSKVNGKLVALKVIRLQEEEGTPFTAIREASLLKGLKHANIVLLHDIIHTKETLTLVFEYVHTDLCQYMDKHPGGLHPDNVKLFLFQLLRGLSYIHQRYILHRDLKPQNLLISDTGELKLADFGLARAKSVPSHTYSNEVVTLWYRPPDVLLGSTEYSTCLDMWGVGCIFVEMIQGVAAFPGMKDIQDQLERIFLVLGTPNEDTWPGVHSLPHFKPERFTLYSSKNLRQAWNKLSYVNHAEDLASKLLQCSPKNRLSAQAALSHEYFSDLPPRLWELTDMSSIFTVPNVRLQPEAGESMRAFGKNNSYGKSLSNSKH
Sequence of CDK14/Cyclin Y (Q8ND76 whole entry partner): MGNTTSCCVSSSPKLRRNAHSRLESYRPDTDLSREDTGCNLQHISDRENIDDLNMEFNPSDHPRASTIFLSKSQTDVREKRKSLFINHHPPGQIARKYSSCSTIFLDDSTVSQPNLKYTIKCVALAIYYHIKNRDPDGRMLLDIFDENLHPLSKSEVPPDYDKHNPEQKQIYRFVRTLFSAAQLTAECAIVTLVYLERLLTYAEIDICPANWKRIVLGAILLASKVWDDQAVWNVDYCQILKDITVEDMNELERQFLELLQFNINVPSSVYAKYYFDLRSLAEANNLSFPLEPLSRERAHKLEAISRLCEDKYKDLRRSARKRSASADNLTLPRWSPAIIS

CDK15/Cyclin Y = CDK15/Cyclin Y (Homo sapiens, UniProt Q96Q40); experiment: NanoBRET live-cell target engagement, NanoLuc-CDK15/Cyclin Y in HEK-293; format: binding; conditions: CDK15/Y
CDK16/Cyclin Y = CDK16/Cyclin Y (Homo sapiens, UniProt Q00536); experiment: NanoBRET live-cell target engagement, CDK16-NanoLuc/Cyclin Y in HEK-293; format: binding; conditions: CDK16/Y
CDK17/Cyclin Y = CDK17/Cyclin Y (Homo sapiens, UniProt Q00537); experiment: NanoBRET live-cell target engagement, CDK17-NanoLuc/Cyclin Y in HEK-293; format: binding; conditions: CDK17/Y
Sequence of CDK17/Cyclin Y (Q00537 whole entry): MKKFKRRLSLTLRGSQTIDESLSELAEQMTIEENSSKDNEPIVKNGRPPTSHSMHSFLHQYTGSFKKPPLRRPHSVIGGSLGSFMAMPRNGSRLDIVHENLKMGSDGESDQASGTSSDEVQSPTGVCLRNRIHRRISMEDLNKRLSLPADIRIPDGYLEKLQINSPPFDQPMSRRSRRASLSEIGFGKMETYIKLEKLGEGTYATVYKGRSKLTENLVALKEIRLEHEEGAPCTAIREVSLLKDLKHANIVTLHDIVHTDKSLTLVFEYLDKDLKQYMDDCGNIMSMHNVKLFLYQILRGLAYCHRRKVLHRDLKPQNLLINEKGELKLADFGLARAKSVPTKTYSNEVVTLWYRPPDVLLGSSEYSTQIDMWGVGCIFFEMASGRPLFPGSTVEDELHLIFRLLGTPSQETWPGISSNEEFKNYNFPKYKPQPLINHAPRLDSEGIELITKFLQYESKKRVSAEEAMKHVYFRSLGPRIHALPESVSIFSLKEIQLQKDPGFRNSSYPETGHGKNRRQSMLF
Sequence of CDK17/Cyclin Y (Q8ND76 whole entry partner): as the sequence (Q8ND76 whole entry partner) above

CDK18/Cyclin Y = CDK18/Cyclin Y (Homo sapiens, UniProt Q07002); experiment: NanoBRET live-cell target engagement, CDK18-NanoLuc/Cyclin Y in HEK-293; format: binding; conditions: CDK18/Y
Sequence of CDK18/Cyclin Y (Q07002 whole entry): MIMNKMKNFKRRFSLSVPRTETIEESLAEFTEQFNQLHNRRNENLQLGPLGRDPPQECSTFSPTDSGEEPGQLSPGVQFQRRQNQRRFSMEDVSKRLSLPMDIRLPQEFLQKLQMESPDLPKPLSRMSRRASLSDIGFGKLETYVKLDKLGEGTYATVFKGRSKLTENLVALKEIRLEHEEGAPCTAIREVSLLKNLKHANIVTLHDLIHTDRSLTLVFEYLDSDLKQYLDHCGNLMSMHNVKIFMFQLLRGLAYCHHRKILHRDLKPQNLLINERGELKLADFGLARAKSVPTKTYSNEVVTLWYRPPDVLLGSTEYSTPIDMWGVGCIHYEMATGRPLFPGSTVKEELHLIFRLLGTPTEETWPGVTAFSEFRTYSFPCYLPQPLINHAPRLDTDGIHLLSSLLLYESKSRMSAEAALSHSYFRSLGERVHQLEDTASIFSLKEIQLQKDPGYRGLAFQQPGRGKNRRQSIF
Sequence of CDK18/Cyclin Y (Q8ND76 whole entry partner): as the sequence (Q8ND76 whole entry partner) above

CDK20/Cyclin H = CDK20/Cyclin H (Homo sapiens, UniProt Q8IZL9); experiment: NanoBRET live-cell target engagement, NanoLuc-CDK20/Cyclin H in HEK-293; format: binding; conditions: CDK20/H
CDK19/Cyclin C = CDK19/Cyclin C (Homo sapiens, UniProt Q9BWU1); experiment: NanoBRET live-cell target engagement, NanoLuc-CDK19/Cyclin C in HEK-293; conditions: CDK19/C
Sequence of CDK19/Cyclin C (Q9BWU1 whole entry): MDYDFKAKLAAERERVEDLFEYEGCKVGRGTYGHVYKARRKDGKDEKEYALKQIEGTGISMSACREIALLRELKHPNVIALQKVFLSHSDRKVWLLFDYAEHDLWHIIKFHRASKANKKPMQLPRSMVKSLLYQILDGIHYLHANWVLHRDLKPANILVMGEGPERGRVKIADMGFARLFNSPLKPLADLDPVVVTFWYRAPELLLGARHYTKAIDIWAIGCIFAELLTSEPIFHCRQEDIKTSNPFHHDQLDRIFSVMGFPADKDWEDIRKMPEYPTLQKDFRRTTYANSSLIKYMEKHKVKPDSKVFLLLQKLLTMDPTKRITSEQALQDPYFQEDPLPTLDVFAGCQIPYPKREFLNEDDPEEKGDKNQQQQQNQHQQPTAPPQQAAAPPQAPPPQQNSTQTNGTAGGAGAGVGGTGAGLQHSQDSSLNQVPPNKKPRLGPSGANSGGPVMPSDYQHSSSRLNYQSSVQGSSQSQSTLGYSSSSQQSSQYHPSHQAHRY
Sequence of CDK19/Cyclin C (P24863 whole entry partner): as the sequence (P24863 whole entry partner) above

CDK10/Cyclin L2 = CDK10/Cyclin L2 (Homo sapiens, UniProt Q15131); experiment: NanoBRET live-cell target engagement, CDK10-NanoLuc/Cyclin L2 in HEK-293; conditions: CDK10/L2

Sequence of CDK1/Cyclin E1 (P06493 whole entry): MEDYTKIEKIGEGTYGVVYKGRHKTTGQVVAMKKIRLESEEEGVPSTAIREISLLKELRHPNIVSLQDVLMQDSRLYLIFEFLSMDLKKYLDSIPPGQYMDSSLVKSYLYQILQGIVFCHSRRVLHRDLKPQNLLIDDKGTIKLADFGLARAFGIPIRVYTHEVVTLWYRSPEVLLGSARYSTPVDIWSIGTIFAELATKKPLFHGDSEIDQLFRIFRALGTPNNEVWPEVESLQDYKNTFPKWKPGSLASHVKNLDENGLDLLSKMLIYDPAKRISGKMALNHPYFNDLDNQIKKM
Sequence of CDK1/Cyclin E1 (P24864 whole entry partner): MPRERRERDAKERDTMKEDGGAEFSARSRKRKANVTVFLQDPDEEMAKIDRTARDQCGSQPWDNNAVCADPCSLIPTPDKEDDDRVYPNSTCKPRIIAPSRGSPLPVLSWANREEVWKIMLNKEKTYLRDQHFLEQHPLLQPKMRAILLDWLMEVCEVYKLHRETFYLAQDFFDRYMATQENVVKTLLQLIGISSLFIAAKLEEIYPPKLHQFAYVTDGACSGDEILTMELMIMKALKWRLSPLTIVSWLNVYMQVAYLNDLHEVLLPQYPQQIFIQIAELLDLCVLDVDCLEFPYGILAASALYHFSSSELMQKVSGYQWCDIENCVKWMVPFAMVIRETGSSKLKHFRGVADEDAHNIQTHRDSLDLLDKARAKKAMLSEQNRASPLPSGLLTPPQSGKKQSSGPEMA

- Inhibition at 10µM (%) (CDK1/Cyclin E1; average): 41.0%
- Inhibition at 10µM (%) (CDK1/Cyclin E1; experiment 1): 45.9%
- Inhibition at 10µM (%) (CDK1/Cyclin E1; experiment 2): 36.2%
- Inhibition at 10µM (%) (CDK2/Cyclin E1; average): 22.7%
- Inhibition at 10µM (%) (CDK2/Cyclin E1; experiment 1): 16.7%
- Inhibition at 10µM (%) (CDK2/Cyclin E1; experiment 2): 28.7%
- Inhibition at 10µM (%) (CDK4/Cyclin D1; average): 80.8%
- IC50 (CDK4/Cyclin D1; average (± SEM where n=3)): 400 ± 100 nM
- Inhibition at 10µM (%) (CDK4/Cyclin D1; experiment 1): 79.0%
- IC50 (CDK4/Cyclin D1; experiment 1): 690 nM
- Inhibition at 10µM (%) (CDK4/Cyclin D1; experiment 2): 82.6%
- IC50 (CDK4/Cyclin D1; experiment 2): 200 nM
- IC50 (CDK4/Cyclin D1; experiment 3): 301 nM
- Inhibition at 10µM (%) (CDK5/CDK5R1; average): 26.1%
- Inhibition at 10µM (%) (CDK5/CDK5R1; experiment 1): 31.1%
- Inhibition at 10µM (%) (CDK5/CDK5R1; experiment 2): 21.1%
- Inhibition at 10µM (%) (CDK6/Cyclin D1; average): 83.0%
- IC50 (CDK6/Cyclin D1; average (± SEM where n=3)): 500 ± 100 nM
- Inhibition at 10µM (%) (CDK6/Cyclin D1; experiment 1): 78.3%
- IC50 (CDK6/Cyclin D1; experiment 1): 550 nM
- Inhibition at 10µM (%) (CDK6/Cyclin D1; experiment 2): 87.7%
- IC50 (CDK6/Cyclin D1; experiment 2): 220 nM
- IC50 (CDK6/Cyclin D1; experiment 3): 659 nM
- Inhibition at 10µM (%) (CDK7; average): 32.2%
- Inhibition at 10µM (%) (CDK7; experiment 1): 38.1%
- Inhibition at 10µM (%) (CDK7; experiment 2): 26.2%
- Inhibition at 10µM (%) (CDK8/Cyclin C; average): 79.0%
- Inhibition at 10µM (%) (CDK8/Cyclin C; experiment 1): 82.7%
- Inhibition at 10µM (%) (CDK8/Cyclin C; experiment 2): 75.3%
- Inhibition at 10µM (%) (CDK9/Cyclin K; average): 96.7%
- Inhibition at 10µM (%) (CDK9/Cyclin K; experiment 1): 94.9%
- Inhibition at 10µM (%) (CDK9/Cyclin K; experiment 2): 98.4%
- Inhibition at 10µM (%) (CDK11A/Cyclin L2; average): 34.1%
- Inhibition at 10µM (%) (CDK11A/Cyclin L2; experiment 1): 43.4%
- Inhibition at 10µM (%) (CDK11A/Cyclin L2; experiment 2): 24.8%
- Inhibition at 10µM (%) (CDK11B/Cyclin L2; average): 58.5%
- Inhibition at 10µM (%) (CDK11B/Cyclin L2; experiment 1): 56.7%
- Inhibition at 10µM (%) (CDK11B/Cyclin L2; experiment 2): 60.4%
- Inhibition at 10µM (%) (CDK13/Cyclin K; average): 11.2%
- Inhibition at 10µM (%) (CDK13/Cyclin K; experiment 1): 12.5%
- Inhibition at 10µM (%) (CDK13/Cyclin K; experiment 2): 9.8%
- Inhibition at 10µM (%) (CDK14/Cyclin Y; average): 50.9%
- Inhibition at 10µM (%) (CDK14/Cyclin Y; experiment 1): 51.1%
- Inhibition at 10µM (%) (CDK14/Cyclin Y; experiment 2): 50.7%
- Inhibition at 10µM (%) (CDK15/Cyclin Y; average): 28.5%
- Inhibition at 10µM (%) (CDK15/Cyclin Y; experiment 1): 33.3%
- Inhibition at 10µM (%) (CDK15/Cyclin Y; experiment 2): 23.7%
- Inhibition at 10µM (%) (CDK16/Cyclin Y; experiment 1): 61.8%
- Inhibition at 10µM (%) (CDK16/Cyclin Y; experiment 2): 61.2%
- Inhibition at 10µM (%) (CDK17/Cyclin Y; average): 71.1%
- Inhibition at 10µM (%) (CDK17/Cyclin Y; experiment 1): 75.5%
- Inhibition at 10µM (%) (CDK17/Cyclin Y; experiment 2): 66.7%
- Inhibition at 10µM (%) (CDK18/Cyclin Y; average): 57.3%
- Inhibition at 10µM (%) (CDK18/Cyclin Y; experiment 1): 55.4%
- Inhibition at 10µM (%) (CDK18/Cyclin Y; experiment 2): 59.3%
- Inhibition at 10µM (%) (CDK20/Cyclin H; experiment 1): -0.6%
- Inhibition at 10µM (%) (CDK20/Cyclin H; experiment 2): -6.9%
- Inhibition at 10µM (%) (CDK19/Cyclin C; average): 72.1%
- Inhibition at 10µM (%) (CDK19/Cyclin C; experiment 1): 76.3%
- Inhibition at 10µM (%) (CDK19/Cyclin C; experiment 2): 67.9%
- Inhibition at 10µM (%) (CDK10/Cyclin L2; average): 11.6%
- Inhibition at 10µM (%) (CDK10/Cyclin L2; experiment 1): 10.1%
- Inhibition at 10µM (%) (CDK10/Cyclin L2; experiment 2): 13.1%
SMILES: CN1CCC(c2c(O)cc(O)c3c(=O)cc(-c4ccccc4Cl)oc23)C1CO (stereo not drawn) [P276-00]
